Experimental data published in ChEMBL document CHEMBL4330156, “Amides and Flavonoids from the Fruit and Leaf Extracts of Melodorum siamensis” (J Nat Prod, 2019).
Activity calls are given as the source filed them. No cut-off for these calls is given here.

Target: Transcription factor p65 (Mus musculus) (UniProt Q04207)
Assay: Inhibition of TNFalpha/IL-1beta-induced NFkB p65 translocation from cytosol to nucleus in mouse MIN6 cells at 50 uM after 30 mins by immunofluorescence based high content imaging analysis
Assay type: cell-based

Chain of Transcription factor p65 (Mus musculus) (Q04207 whole entry): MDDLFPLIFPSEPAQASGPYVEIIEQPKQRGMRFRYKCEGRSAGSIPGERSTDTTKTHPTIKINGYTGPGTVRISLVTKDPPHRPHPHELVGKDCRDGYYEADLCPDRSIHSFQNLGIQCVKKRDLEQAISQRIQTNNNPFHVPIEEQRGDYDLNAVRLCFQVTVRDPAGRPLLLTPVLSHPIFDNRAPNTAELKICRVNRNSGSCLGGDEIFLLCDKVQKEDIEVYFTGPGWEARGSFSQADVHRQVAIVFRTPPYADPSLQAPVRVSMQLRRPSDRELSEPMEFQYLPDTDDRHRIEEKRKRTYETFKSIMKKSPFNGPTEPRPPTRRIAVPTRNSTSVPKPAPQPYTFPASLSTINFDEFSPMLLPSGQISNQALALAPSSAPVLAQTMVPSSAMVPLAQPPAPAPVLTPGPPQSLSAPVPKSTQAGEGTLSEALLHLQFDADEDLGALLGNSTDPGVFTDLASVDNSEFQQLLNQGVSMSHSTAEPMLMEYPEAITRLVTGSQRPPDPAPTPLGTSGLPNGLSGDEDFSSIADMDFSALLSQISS

inhibition: Active
SMILES: COc1cc(O)cc(O)c1C(=O)/C=C/c1ccc(O)cc1
